Experimental data: ChEMBL document CHEMBL5137052, “Identification of dihydroquinolizinone derivatives with cyclic ether moieties as new anti-HBV agents” (Eur J Med Chem, 2022)

How the values were obtained:
[1] = tested on: Hepatitis B virus; assay: Antiviral activity against HBV infected in human HepG2.2.15 cells assessed as reduction in HBeAg level in cellular supernatant by luminescence based microplate reader analysis; type: functional, organism-based
[2] = tested on: Hepatitis B virus; assay: Antiviral activity against HBV infected in human HepG2.2.15 cells assessed as reduction in HBsAg level in cellular supernatant by luminescence based microplate reader analysis; type: functional, organism-based
[3] = tested on: Hepatitis B virus; assay: Antiviral activity against HBV infected in human HepG2.2.15 cells assessed as reduction in intracellular core HBV DNA level incubated for 6 days by qPCR analysis; type: functional, organism-based; settings: HepG2.2.15, 144 h
[4] = Neurotoxicity against NGF induced rat PC-12 cells assessed as morphological changes by measuring appearance of round cells with disappearance of neurites at 10 uM incubated for 48 hrs by phase contrast microscopic analysis; type: toxicity, cell-based; settings: pc-12, 48 h
[5] = Neurotoxicity against NGF induced rat PC-12 cells assessed as morphological changes by measuring appearance of shrunken cells with disappearance of neurites at 10 uM incubated for 48 hrs by phase contrast microscopic analysis; type: toxicity, cell-based; settings: pc-12, 48 h
[6] = Cytotoxicity against human HepG2.2.15 cells assessed as reduction in cell viability incubated for 6 days by CCK-8 assay; type: toxicity, cell-based, HepG2 2.2.15; settings: for CC50 at 144 h: time 6 day
[7] = Neurotoxicity against NGF induced rat PC-12 cells assessed as morphological changes by measuring appearance of shrunken cells at 10 uM incubated for 48 hrs by phase contrast microscopic analysis; type: toxicity, cell-based; settings: pc-12, 48 h
[8] = Tmax in BALB/c mouse at 10 mg/kg, po measured up to 24 hrs by HPLC analysis; type: ADME, organism-based; settings: in vivo
[9] = Cmax in BALB/c mouse at 10 mg/kg, po measured up to 24 hrs by HPLC analysis; type: ADME, organism-based; parameters: dose 10 mg/kg, time < 24 hrs, route po; settings: in vivo
[10] = MRT (0 to t) in BALB/c mouse at 10 mg/kg, po measured up to 24 hrs by HPLC analysis; type: ADME, organism-based; settings: in vivo
[11] = Elimination half life in BALB/c mouse at 10 mg/kg, po measured up to 24 hrs by HPLC analysis; type: ADME, organism-based; settings: in vivo, read-out: beta t1/2 (converted)
[12] = AUC (0 to t) in BALB/c mouse at 10 mg/kg, po measured up to 24 hrs by HPLC analysis; type: ADME, organism-based; parameters: dose 10 mg/kg, time < 24 hrs, route po; settings: in vivo
[13] = Neurotoxicity against NGF induced rat PC-12 cells assessed as morphological changes by measuring appearance of clear neurites at 10 uM incubated for 48 hrs by phase contrast microscopic analysis; type: toxicity, cell-based; settings: pc-12, 48 h

Compound | EC50 [1] | EC50 [2] | EC50 [3] | IC50 [1] | IC50 [2] | IC50 [3] | CC50 at 144 h [6] | also measured
COCCCOc1cc2c(cc1OC)-c1cc(=O)c(C(=O)O)cn1[C@@H](C(C)C)C2 | 3270 nM | 928 nM | 75.8 nM |  |  |  |  | 
COc1cc2c(cc1OCc1ccc3c(c1)OCO3)C[C@@H](C(C)C)n1cc(C(=O)O)c(=O)cc1-2 | 191 nM | 0.8 nM | 1.9 nM |  |  |  |  | Activity [4]: Toxic; Activity [5]: Toxic
COc1cc2c(cc1OCc1ccc3c(c1)OCO3)C[C@H](C(C)C)n1cc(C(=O)O)c(=O)cc1-2 | 2030 nM | 239 nM | 124 nM |  |  |  |  | 
COc1cc2c(cc1OCC1COc3cccc(Cl)c3O1)CC(C(C)C)n1cc(C(=O)O)c(=O)cc1-2 (stereo not drawn) |  |  |  | 53.2 nM | 3.4 nM | 4.3 nM | 11600 nM | 
COc1cc2c(cc1OC[C@H]1COc3cccnc3O1)C[C@@H](C(C)C)n1cc(C(=O)O)c(=O)cc1-2 | 104 nM | 1.4 nM | 1.4 nM |  |  |  |  | Activity [7]: Toxic
COc1cc2c(cc1OCCC1COc3ccccc3O1)CC(C(C)C)n1cc(C(=O)O)c(=O)cc1-2 (stereo not drawn) |  |  |  | 16.4 nM | 18.4 nM | 1.2 nM | 11600 nM | 
COc1cc2c(cc1OCC1COc3cccc(F)c3O1)CC(C(C)C)n1cc(C(=O)O)c(=O)cc1-2 (stereo not drawn) |  |  |  | 57.3 nM | 1.6 nM | 37.2 nM | 21500 nM | 
COc1cc2c(cc1OCC1COc3cccnc3O1)CC(C(C)C)n1cc(C(=O)O)c(=O)cc1-2 (stereo not drawn) |  |  |  | 94.9 nM | 1.9 nM | 0.5 nM | > 50000 nM | Tmax [8]: 30 min; Cmax [9]: 2910 nM; MRT last at 24 h [10]: 52.8 min; half-life [11]: 43.2 min; AUC(0-t) at 24 h [12]: 2.38 µM·h
COc1cc2c(cc1OCC1COCCO1)CC(C(C)C)n1cc(C(=O)O)c(=O)cc1-2 (stereo not drawn) |  |  |  | > 1000 nM | 5.1 nM | 18.2 nM | > 50000 nM | 
COc1ccc(COc2cc3c(cc2OC)-c2cc(=O)c(C(=O)O)cn2C(C(C)C)C3)cc1OC (stereo not drawn) |  |  |  | 158 nM | 1.1 nM | 11.2 nM | > 50000 nM | 
COc1cc2c(cc1OCC1COc3c(Cl)cccc3O1)CC(C(C)C)n1cc(C(=O)O)c(=O)cc1-2 (stereo not drawn) |  |  |  | 21 nM | 1.2 nM | 4.2 nM | 11600 nM | 
COc1cc2c(cc1OC[C@@H]1COc3cccnc3O1)C[C@@H](C(C)C)n1cc(C(=O)O)c(=O)cc1-2 | 70 nM | 6.3 nM | 86.3 nM |  |  |  |  | Activity [7]: Toxic
COc1cc2c(cc1OC[C@@H]1CCCO1)C[C@@H](C(C)C)n1cc(C(=O)O)c(=O)cc1-2 | 4.6 nM | 1.6 nM | 0.6 nM |  |  |  |  | Activity [13]: Non-Toxic
COc1cc2c(cc1OCC1CCCO1)CC(C(C)C)n1cc(C(=O)O)c(=O)cc1-2 (stereo not drawn) |  |  |  | 27 nM | 509 nM | 1.6 nM | > 50000 nM | Tmax [8]: 19.8 min; Cmax [9]: 8840 nM; MRT last at 24 h [10]: 65.4 min; half-life [11]: 39.6 min; AUC(0-t) at 24 h [12]: 10.4 µM·h
COc1cc2c(cc1OC[C@@H]1COc3cccnc3O1)C[C@H](C(C)C)n1cc(C(=O)O)c(=O)cc1-2 | 3190 nM | 882 nM | 882 nM |  |  |  |  | 
COc1cc2c(cc1OC(C)c1ccc3c(c1)OCO3)CC(C(C)C)n1cc(C(=O)O)c(=O)cc1-2 (stereo not drawn) |  |  |  | > 1000 nM | 1.2 nM | 181 nM | > 50000 nM | 
COc1cc2c(cc1OC[C@@H]1CCCO1)C[C@H](C(C)C)n1cc(C(=O)O)c(=O)cc1-2 | 2010 nM | 1.2 nM | 119 nM |  |  |  |  | 
COc1cc2c(cc1OC[C@H]1CCCO1)C[C@@H](C(C)C)n1cc(C(=O)O)c(=O)cc1-2 | 220 nM | 5.1 nM | 2.1 nM |  |  |  |  | Activity [7]: Toxic
COc1cc2c(cc1OCC1COc3c(F)cccc3O1)CC(C(C)C)n1cc(C(=O)O)c(=O)cc1-2 (stereo not drawn) |  |  |  | 20.6 nM | 1.5 nM | 29 nM | 16700 nM | 
COc1cc2c(cc1OC[C@H]1CCCO1)C[C@H](C(C)C)n1cc(C(=O)O)c(=O)cc1-2 | 3380 nM | 3.5 nM | 37.5 nM |  |  |  |  | 
COc1cc2c(cc1OCC1CCOC1)CC(C(C)C)n1cc(C(=O)O)c(=O)cc1-2 (stereo not drawn) |  |  |  | 56.2 nM | 1.1 nM | 0.6 nM | > 50000 nM | 
COc1cc2c(cc1OC[C@H]1COc3cccnc3O1)C[C@H](C(C)C)n1cc(C(=O)O)c(=O)cc1-2 | 12800 nM | 3080 nM | 3080 nM |  |  |  |  | 
COc1cc2c(cc1OCc1ccc3c(c1)OCCO3)CC(C(C)C)n1cc(C(=O)O)c(=O)cc1-2 (stereo not drawn) |  |  |  | 10.2 nM | 0.2 nM | 13.4 nM | 34700 nM | 
COc1cc2c(cc1OCc1ccc3c(c1)OCO3)CC(C(C)C)n1cc(C(=O)O)c(=O)cc1-2 (stereo not drawn) |  |  |  | 66.7 nM | 1.6 nM | 5 nM | > 50000 nM | Tmax [8]: 49.8 min; Cmax [9]: 2180 nM; MRT last at 24 h [10]: 101 min; half-life [11]: 82.2 min; AUC(0-t) at 24 h [12]: 4.46 µM·h
COCCCOc1cc2c(cc1OC)-c1cc(=O)c(C(=O)O)cn1C(C(C)C)C2 (racemic) | 18.2 nM | 1 nM | 1 nM | 91.2 nM | 5.1 nM | 86.3 nM | > 50000 nM | Tmax [8]: 11.4 min; Cmax [9]: 11600 nM; MRT last at 24 h [10]: 67.8 min; half-life [11]: 51 min; Activity [4]: Toxic; Activity [5]: Toxic; AUC(0-t) at 24 h [12]: 17.2 µM·h

Further lines, with some results ahead:

EC50 [1] | EC50 [2] | EC50 [3] | IC50 [1] | IC50 [2] | IC50 [3] | Compound | CC50 at 144 h [6] | also measured
 |  |  | 39.5 nM | 3.7 nM | 9.1 nM | COc1cc2c(cc1OCC1COc3cc(Cl)ccc3O1)CC(C(C)C)n1cc(C(=O)O)c(=O)cc1-2 (stereo not drawn) | 10600 nM | 
 |  |  | 86.5 nM | 7.7 nM | 5.7 nM | COc1cc2c(cc1OCC1COc3ccc(Cl)cc3O1)CC(C(C)C)n1cc(C(=O)O)c(=O)cc1-2 (stereo not drawn) | 11600 nM | 
 |  |  | 15.4 nM | 0.2 nM | 5.7 nM | COc1cc2c(cc1OCC1COc3ccc(F)cc3O1)CC(C(C)C)n1cc(C(=O)O)c(=O)cc1-2 (stereo not drawn) | 34700 nM | Tmax [8]: 60 min; Cmax [9]: 1440 nM; MRT last at 24 h [10]: 112 min; half-life [11]: 101 min; AUC(0-t) at 24 h [12]: 3.38 µM·h
 |  |  | 179 nM | 3.5 nM | 10.1 nM | COc1cc2c(cc1OCC1COc3cc(C)ccc3O1)CC(C(C)C)n1cc(C(=O)O)c(=O)cc1-2 (stereo not drawn) | 11600 nM | 
 |  |  | > 1000 nM | 1.7 nM | 8.1 nM | COc1ccc2c(c1)OC(COc1cc3c(cc1OC)-c1cc(=O)c(C(=O)O)cn1C(C(C)C)C3)CO2 (stereo not drawn) | 31900 nM | 
 |  |  | 328 nM | 7.5 nM | 17.9 nM | COc1cc2c(cc1OCC1COc3ccc(C)cc3O1)CC(C(C)C)n1cc(C(=O)O)c(=O)cc1-2 (stereo not drawn) | 34700 nM | 
 |  |  | > 1000 nM | 34.3 nM | 36.9 nM | COc1cc2c(cc1OCC1COc3cc(Br)ccc3O1)CC(C(C)C)n1cc(C(=O)O)c(=O)cc1-2 (stereo not drawn) | 34700 nM | 
 |  |  | 2 nM | 1.5 nM | 12.1 nM | COc1cc2c(cc1OCC1COc3ccccc3O1)CC(C(C)C)n1cc(C(=O)O)c(=O)cc1-2 (stereo not drawn) |  | IC50 at 6 days [6]: 21500 nM
 |  |  | 18.2 nM | 4.6 nM | 16.5 nM | COc1cc2c(cc1OCC1COc3ccc([N+](=O)[O-])cc3O1)CC(C(C)C)n1cc(C(=O)O)c(=O)cc1-2 (stereo not drawn) | 50000 nM | 
 |  |  | 22.7 nM | 18.4 nM | 15.5 nM | COc1cc2c(cc1OCC1COc3cc(F)ccc3O1)CC(C(C)C)n1cc(C(=O)O)c(=O)cc1-2 (stereo not drawn) | 11600 nM | 
 |  |  | 127 nM | 24.5 nM | 13.4 nM | COc1cc2c(cc1OCC1COc3ccc(Br)cc3O1)CC(C(C)C)n1cc(C(=O)O)c(=O)cc1-2 (stereo not drawn) | 11600 nM | 
 |  |  | > 1000 nM | 403 nM | 52 nM | COc1ccc2c(c1)OCC(COc1cc3c(cc1OC)-c1cc(=O)c(C(=O)O)cn1C(C(C)C)C3)O2 (stereo not drawn) | > 50000 nM | 
